We go through 1 molecule from patent US20120302526A1, “METHODS FOR TREATING POST-TRAUMATIC STRESS DISORDER” (Regents of the University of Colorado, a body corporate, priority 2011, published 2012).

Structures are written as SMILES.

The test system of assay [1] is TBI induced anxiety-like behavior (LFPI rats). In words: Freezing in a novel context after LFPI and foot shock, post-injury ibudilast (Example 1, FIG. 1). In kind it is in vivo, Sprague-Dawley rats. The procedure:
Twenty-four adult viral-free male Sprague-Dawley rats (275-325 g; Harlan Laboratories, Madison, Wis.) were housed in pairs in temperature (23±3° C.) and light (12:12 light:dark) controlled rooms with ad libitum access to food and water. All procedures were performed in accordance with University of Colorado Institutional Animal Care and Use Committee guidelines for the humane use of laboratory rats in biological research. Rats were randomly assigned to 1 of 4 groups (n=6/group; Sham-operated/vehicle-injected, Sham-operated/ibudilast-injected, LFPI/vehicle-injected, LFPI/ibudilast-injected). All rats were shocked approximately 2 weeks following LFPI to enhance freezing behavior in a novel context (a natural fear reaction in this species). After freezing behavior had been established (1 month post-injury) animals were subjected to a 5-day regimen of ibudilast or vehicle (corn oil) injections (once daily for 5 days). Freezing behavior was again assessed at 2 weeks, 1 month, 2 months, and at 3 months post-injection. Lateral Fluid Percussion Injury. LFPI rats were anesthetized with halothane (4% induction, 2.0-2.5% maintenance) and mounted in a stereotaxic frame. The lateral fluid percussion injury used in this study utilized a PV820 Pneumatic PicoPump (World Precision Instruments, Inc., Sarasota, Fla.) to deliver standardized pressure pulses of air to a standing column of fluid. A 3.0 mm diameter craniotomy was centered at 3 mm caudal to bregma and 4.0 mm lateral of the sagittal suture, with the exposed dura remaining intact. A female Luer-Loc hub (inside diameter of 3.5 mm) was secured over the craniotomy with cyanoacrylate adhesive. Following hub implantation, the animal was removed from the stereotaxic frame and connected to the LFPI apparatus. […] Weight was recorded prior to each dosing. […] Rats were tested (5 minutes) and the percent of freezing behavior was assessed. Freezing was defined as the absence of movement except for heart beat/respiration, and was recorded in 10 sec intervals. Statistical Analyses: Results are expressed as mean±SEM. […]

In assay [2] the test system is TBI induced anxiety-like behavior (LFPI animals). In words: Freezing in a novel context, shock at 1 month post-injury, peri-injury MN166 (Example 3, FIG. 3B). It counts as in vivo, rats. As to conditions: 10 mg/kg s.c. 5 days peri-injury. The text has this: Freezing behavior in rats was elicited substantially in the manner described before. When freezing behavior was made the dependent variable after placement in a novel context, large and stable differences between Naïve and LFPI animals were seen (FIG. 3). LFPI animals froze approximately 20-40% of the time compared to 5-10% for Naïve animals (FIG. 3A). Increased freezing behavior in LFPI compared to Naïve animals was significant at all time points (p<0.001). […] These animals included Naïve and LFPI groups as in FIG. 3A, but also LFPI+MN166 (Animals received a 5-day dosing regimen in which they received once-daily ibudilast injections 24 hr prior to LFPI, the day of surgery and LFPI, and 3 days following LFPI (10 mg/kg, 1 ml/kg subcutaneously in corn oil)) and a Sham surgery group. Overall, LFPI animals froze substantially more than Naïve, LFPI+MN166, and Sham groups at the 1, 2 and 3 month time points (p<0.001). Similar to the animals of FIG. 3A, at 2 weeks and 1 month post-injury, LFPI animals froze approximately 20-30% of the time in the novel context compared to approximately 5% for Naïve animals (p<0.001).

Assay [3] concerns TBI induced anxiety-like behavior (LFPI rats). The assay can be described thus: Freezing in shock chamber after fear conditioning, peri-injury ibudilast (Example 2, FIG. 2). In kind it is in vivo. The note with it: 10 mg/kg in corn oil, 5 days (2 days before LFPI, day of LFPI, 2 days after); 1 and 3 months post-injury. The procedure:
All animals were fear conditioned by receiving shock (1.5 mA; 3-sec) immediately upon being placed in an experimental chamber. Freezing behavior was then measured the following day upon being replaced in the same chamber. Naïve (no surgical procedures) and Sham (LFPI surgery without pressure pulse) froze at a typical rate of approximately 15-20% when measured at 1 and 3 months post-injury (FIG. 2). In contrast, cohorts who received LFPI froze approximately 3 times as long at both time points.

Assay [4] concerns TBI induced anxiety-like behavior (LFPI animals). In words: Freezing in test chamber after immediate shock, peri-injury MN166 (Example 3, FIG. 4B). In kind it is in vivo, rats. As to conditions: 1 and 3 months post-injury, untreated LFPI approximately 60% (p<0.003 and 0.0001). The text has this:
Animals with LFPI froze approximately 3-4 times longer (30-40%) than Naïve animals (<10%) when placed in the test chamber (FIG. 4A). […] However, LFPI animals froze substantially more (approximately 60%) after shock compared to LFPI animals receiving no shock (30-35%; p<0.001 and 0.003, respectively). […] LFPI animals consistently froze more than all other groups, at all time points, with or without shock. […] However, by 3 months this difference was no longer significant (p<0.493).

`CC(C)C(=O)c1c(C(C)C)nn2ccccc12` [Ibudilast, 2-Methyl-1-[2-(1-methylethyl)pyrazolo[1,5-a]pyridin-3-yl]-1-propanone]: the “freezing behavior of treated LFPI rats vs untreated LFPI rats” value in assay [1] (LFPI rats, 10 mg/kg s.c. once daily for 5 days at 1 month post-injury, up to 3 months post-treatment, p<0.01) is “froze substantially less”. Besides, the “freezing compared to untreated injured animals” value in assay [1] (LFPI rats, 10 mg/kg s.c. once daily for 5 days, started 1 month post-injury, P<0.05) was “about 60%”. The “influence on freezing of control animals” value in assay [1] (Sham-operated rats, 10 mg/kg s.c. once daily for 5 days, all post-injection time-points) is “no influence on control animals”. Moreover, the “percent freezing in novel context” value in assay [2] (3 months post-injury, untreated LFPI 50%, Naïve 8%, Sham 10%) amounted to 14%. For the same molecule, the “freezing compared to untreated LFPI animals, novel context” value in assay [2] (significant at 1, 2 and 3 months post-injury (p<0.01, 0.001, 0.0001)) is “greatly reduced freezing”. The “freezing behavior vs LFPI animals receiving vehicle injections” value in assay [3] is given as “substantially less”. Besides, the “percent freezing in test chamber after shock” value in assay [4] is on record as 25-35%.
